These results are taken from publication PMC12741294, “Phenazine 5,10-dioxide analogues as potential therapeutics in AML: Efficacy on patient-derived blasts, in zebrafish larvae xenografts and synergy with venetoclax” (Translational Oncology, 2025).

The subject of one data set is AML patient blasts. The experiment in a line: Cell death of patient-derived AML blasts, Annexin V/propidium iodide flow cytometry, 24 h. Particulars: compared with Cpd 3, 6, 9. The data set is classed as cell-based, human. From the text:
Blasts from 61 non-selected patients were used in this study. Supplementary Table 1 presents the patient information, classification, and genetic aberration of the blasts. Peripheral blood mononuclear cells (PBMC) from healthy volunteers were obtained from freshly drawn peripheral blood from the Department of Immunology and Transfusion Medicine, Haukeland University Hospital, Bergen, Norway. AML blasts and PBMCs were isolated by density gradient separation of peripheral blood. The patient samples contained at least 95 % leukemic blasts after isolation. Bone marrow (BM) aspirate from a healthy donor was kindly provided by Professor BT Gjertsen, Dept. Clinical Science, University of Bergen (REK Vest 2012/2247). The patient blasts were cultured in StemSpan medium supplemented with SCF, Flt-3 ligand, and G-CSF, each at a final concentration of 20 ng/mL [22, 23], treated with phenazine 5,10-dioxides or daunorubicin (DNR) for 24 h before cell death was assessed by flow-cytometric analyses as described previously. Viable cells were defined as Annexin V/propidium iodide double negative cells.

For data set [1], the system named is zebrafish larvae. The data set can be described thus: Toxicity in zebrafish larvae (viability, MTD, morphology). The data set is classed as in vivo. Particulars: for Melanocyte abnormalities: wild-type AB-strain zebrafish larvae. As to the method: Phenazine 5,10-dioxides were dissolved in DMSO to give final concentrations between 5 and 20 mM and administered to the zebrafish larvae by diluting the stock solutions in the embryo medium. All compounds were tested up to a maximal concentration of 100 µM. […]
(§1) Zebrafish larvae heart rate was analysed as described by Førde et al.. To examine zebrafish larvae for morphological abnormalities, they were imaged using a Nikon Diaphot 300 inverted microscope fitted with a Nikon DS-Fi3 microscope camera and DS-L4 camera control unit.

Data set [2] has as its system MOLM-13. The data set can be described thus: WST-1 metabolic activity and Bliss synergy with VTX, MOLM-13. It is filed as cell-based, human. Particulars: for Mean Bliss interaction index (synergy score): Cpd 1 + VTX, all tested combinations. As to the method: (§2) To study the combination effect of phenazine 5,10-dioxides and VTX in AML cell lines, the cells were seeded in 96-well plates at 35,000 cells per well for 24-hour experiments or 20,000 cells per well for 48-hour experiments. Phenazine 5,10-dioxides and VTX, alone or in combination, were added in desired concentrations and cell plates incubated for 24 and 48 h. Thereafter, WST-1 was added to each well according to the manufacturer’s instructions and incubated for two hours. Absorbance was measured at 450 nm with 620 nm reference wavelength in a Wallac EnVision® 2130 multilabel plate reader, and this value was used to calculate relative metabolic activity compared to untreated cells. The cells were next fixed in 2 % formaldehyde with 0.01 mg/ml Hoechst 33,342 dye dissolved in PBS. Nuclear morphology was studied using a Nikon Diaphot 300 microscope to confirm that metabolic activity correlated with the presence of apoptotic nuclei (Supplementary Figure 1).
(§3) To calculate drug interaction, cell metabolic activity results were plotted into the interaction calculation software SynergyFinder+ [31], and Bliss independence score was used to calculate synergy.
On the technique in general: Tetrazolium dyes change colour on reduction, which living cells bring about.

In another data set the test system is AML cell lines. The experiment in a line: Preliminary combination of Cpd 1 with AML drugs. It is filed as cell-based, human. As to conditions: in combination with DNR, cytarabine and etoposide, data not shown.
Data set [3] relates to MOLM-13. The arrangement: method as in PMID 34124675. Particulars: ref [6]; cited from earlier work.
Data set [4] has as its system MOLM-13. The experiment in a line: Cytotoxicity towards MOLM-13 cells (EC50). The data set is classed as cell-based, human. As to conditions: no reference mark in Table 3. The method, then: Table 3 Toxicity of phenazine 5,10-dioxides in zebrafish larvae. Maximum tolerated doses and observed morphological alterations in zebrafish larvae caused by phenazine 5,10-dioxides dissolved in embryo medium for 48 h. Cpd: compound. MTD: maximum tolerated dose. a: EC50 values from, –: not observed. | column: MOLM-13 EC50 (µM)

Data set [5] relates to zebrafish larvae. The data set can be described thus: Zebrafish larvae heart rate. It is filed as in vivo. Particulars: intravenously injected, 4 nL injection, 100 µM; 24 and 48 h. The method, then:
as §1

In data set [6] the test system is xenograft MOLM-13 cells in zebrafish larvae. The data set can be described thus: Tumour burden of xenograft MOLM-13 cells in zebrafish larvae. The data set is classed as in vivo. As to conditions: VTX 4 nL 50 µM intravenous injection; 24 h; p < 0.001. As to the method: Prior to transplantation into zebrafish larvae, MOLM-13 cells were stained with the fluorescent marker CellTracker™ Deep Red. The cell suspension was centrifuged at 300 relative centrifugal force (RCF) for 5 min, and the medium removed. Thereafter, the cells were resuspended in serum-free RPMI-1640 medium containing 1.5 µM CellTracker™ Deep Red and incubated for 30 min at 37 °C. Excess dye was removed by centrifugation for five minutes at 300 RCF, removal of the medium and the cells were resuspended in fresh RPMI-medium to a final concentration of 10 million cells/mL. Intravenous injection of MOLM-13 cells into zebrafish larvae was performed as described in Førde et al.. The zebrafish larvae xenografts were incubated at 31.5 °C.
For quantification of tumour burden in zebrafish larvae a Nikon Ti-E inverted microscope fitted with an Andor Dragonfly 505 spinning disk confocal unit and iXon 888 Life EMCCD camera setup was used. […] The zebrafish larvae were scored based on the number of cells successfully injected and divided into treatment or control groups. […]
The Fiji macro described in [30] was used to determine MOLM-13 cancer cell burden in zebrafish larvae. […] After defining the boundary of the larva and segmentation from the background, the cells are segmented so that individual cells can be quantified (both size and number). […]

A further data set concerns OCI-AML3. The data set can be described thus: WST-1 metabolic activity and Bliss synergy with VTX, OCI-AML3. The data set is classed as cell-based, human. Particulars: VTX alone; 24 h. The method, then:
as §2, §3

The conditions of data set [7]: ref [29]; cited from earlier work.
Details of data set [8]: method as in PMID 38778732. As to conditions: patients receiving 400 mg VTX as a single dosage; ref [43]; cited from earlier work.
Another data set deals with AML patients. Further details: method as in PMID 32786187. As to conditions: ref [14]; cited from earlier work.
Setting [9] is: dissolved in embryo medium for 48 h.
Where [10] appears, read: dissolved in embryo medium for 48 h, concentration from which observed.

Each structure is given as a SMILES string. Read-outs that look alike come from different tables or passages of the source.

As for `[O-][n+]1c2cccc(O)c2[n+]([O-])c2cccc(O)c21` [Cpd 1, 1,6-dihydroxyphenazine 5,10-dioxide], the “Potency towards the patient blasts” value with AML patient blasts is “lowest potency”. Moreover, the “Lethality to zebrafish larvae” value with zebrafish larvae [1] (100 µM (highest concentration tested), 48 h) is reported as “not lethal”. For the same compound, the “Viability of zebrafish larvae (Fig. 2A annotation)” value in the data set on zebrafish larvae [1] (48 h of exposure, up to 100 µM) is listed as “Non-toxic”. For the same compound, the “MTD (maximum tolerated dose)” value in the data set on zebrafish larvae [1] (setting [9]) is given as over 100 µM. For the same compound, the Melanocyte abnormalities result with zebrafish larvae [1] is reported as “not observed”. Also, the “Mean Bliss interaction index (synergy score)” value in the data set with MOLM-13 [2] (24 h) worked out at 15.56; in the data set on MOLM-13 [2] (48 h) it was 10.90. Further, the Drug interaction result in the data set on AML cell lines is recorded as “additive effects”. The EC50 – broadly, the concentration needed to bring the measured effect to its halfway point – in the data set on MOLM-13 [3] is 2000 ± 100 nM.

For the compound `COc1cccc2c1[n+]([O-])c1cccc(O)c1[n+]2[O-]` [Cpd 2, Myxin], the “Only concentration that did not cause lethality” value with zebrafish larvae [1] (48 h exposure) is 5 µM. For the same compound, in the data set on zebrafish larvae [1] (setting [9]), the “MTD (maximum tolerated dose)” value is on record as 5 µM. Also, the Pigmentation alterations result in the data set on zebrafish larvae [1] (setting [10]) is recorded as “From 10 µM”. Moreover, the “Concentration killing zebrafish larvae after six hours” value in the data set with zebrafish larvae [1] (in embryo medium, data not shown) amounted to 30000 nM. In the data set with zebrafish larvae [1], the Melanocyte abnormalities result is “caused melanocyte abnormalities”. Besides, in the data set on MOLM-13 [3], the EC50 is 1400 ± 300 nM.

In the data set on MOLM-13 [4], `COc1cccc2c1[n+]([O-])c1ccccc1[n+]2[O-]` [Cpd 10] registered an EC50 of 1400 ± 100 nM. In addition, the “MTD (maximum tolerated dose)” value in the data set on zebrafish larvae [1] (setting [9]) is under 10 µM. In addition, in the data set with zebrafish larvae [1] (setting [10]), the Muscle fibre alterations entry is on record as “From 10 µM” and the Pigmentation alterations result is reported as “From 10 µM”. Moreover, the Melanocyte abnormalities entry with zebrafish larvae [1] is listed as “caused melanocyte abnormalities”.

As to `CC1(C)CCC(CN2CCN(c3ccc(C(=O)NS(=O)(=O)c4ccc(NCC5CCOCC5)c([N+](=O)[O-])c4)c(Oc4cnc5[nH]ccc5c4)c3)CC2)=C(c2ccc(Cl)cc2)C1` [VTX, venetoclax], the “Heartrate of zebrafish larvae relative to control” value with zebrafish larvae [5] is recorded as “No significant differences”. The “Cancer cell burden relative to control” value in data set [6] is reported as “reduced cancer cell burden”. The Relative metabolic activity in the data set with MOLM-13 [2] (6 nM VTX alone, 48 h) is recorded as 59%. Moreover, in the data set on OCI-AML3, the “Concentration until which no reduction in metabolic activity” value was 6 µM and the “Sensitivity of OCI-AML3 cells” value is recorded as “high resistance”. For the same compound, the Permeability result in data set [7] is given as “low permeability”. For the same compound, the Cmax (as a rule, the highest concentration seen after dosing) in data set [8] was about 2500 nM.

With `Nc1ncn([C@@H]2O[C@H](CO)[C@@H](O)[C@H]2O)c(=O)n1` [azacitidine], in the data set with AML patients, the Median overall survival is recorded as 9.6 months.
